US20230271925A1, “NOVEL TNF ACTIVITY INHIBITOR COMPOUND, AND PHARMACEUTICALLY ACCEPTABLE SALT THEREOF” (ILAB, priority 2020, published 2023)
Marks after values point to notes of the source that are not given here.

Tests used:
[1] = test system: TNF-induced death of C57BL/6 mice; experiment: TNF-induced mouse lethality assay; assay type: in vivo; conditions: for Survival (%): C57BL/6 male mice, 20 or 40 mg/kg p.o. 30 min before hTNF 8 μg/kg + D-galactosamine 700 mg/kg i.p., 24 hours; for survival rate of mice compared to the control group: C57BL/6 mice, pre-treated p.o., TNF + D-galactosamine
Method: In this experiment, the TNF-induced mouse death inhibition activity by the compound of the present invention was investigated. To this end, mice were pretreated with the compound of the present invention, and the survival rate of the mice was measured against TNF-induced death.
In particular, after C57BL/6 mice were fasted for 24 hours, 100 μL of the compounds of Examples 2, 32, 39, 40, 44, 47, and 48 in a buffer composition of 10% DMSO in 90% PBS was orally administered at a concentration of 20 or 40 mg/kg. After 30 minutes, a mixed solution of human recombinant TNF 8 μg/kg and D-galactosamine 700 mg/kg in PBS buffer was intraperitoneally administered at 100 μL per mouse, the survival rate of mice was measured every 3 hours from the time of intraperitoneal administration and the experiment was terminated 24 hours later. The mice were divided into 5 groups, the experiment was repeated 5 times, and the Example compounds used for each experiment are as shown in FIG. 7(a, b).

[2] = test system: mouse fibroblast L929 cells; experiment: TNF-induced apoptosis inhibitory activity in L929 cells (MTS assay); assay type: cell-based; conditions: TNF 20 ng/mL + actinomycin D, compound 0 to 40 μM, 24 hours, read-out: IC50, inhibition of TNF-induced apoptosis
Method: In this experiment, the TNF-induced apoptosis inhibitory activity by the compound of the present invention was investigated. To this end, mouse fibroblasts were treated with the chromenone and quinolone derivative compounds prepared in the above Examples, and then cell viability was measured by a conventionally known MTS assay.
Mouse fibroblast L929 cells were purchased from the American Type Culture Collection (ATCC Manassas, Va.), and then cultured in RPMI medium containing 10% Fetal Bovine Serum (FBS) and 1% antibiotics at the incubator in which 5% CO2 and humidity at 37° C. were maintained.
Mouse fibroblast L929 cells were treated with recombinant TNF and actinomycin D, a sensitizer, to induce apoptosis, with which an assay capable of confirming apoptosis inhibitory activity was established. In particular, apoptosis conditions were induced by adding actinomycin D as a sensitizer and TNF (20 ng/mL) to […], and then L929 cells were pretreated with the compounds of Examples 52, 54, and 55 at a concentration of 0 to 40 μM for 24 hours. After 24 hours, they were treated with MTS for 3 hours, and then the absorbance was measured at 490 nm to calculate IC50 values. % Inhibition of TNF was calculated by the following formula.
% Inhibition of TNF=(OD value of the group treated with the compound−OD value of the group treated with TNF and actinomycin D)/(OD value of the group treated with actinomycin D−OD value of the group treated with TNF and actinomycin D)×100
IC50 values were statistically calculated using Prism 6 (GraphPad) (IC50: 50% inhibitory concentration).

TNF-TNFR1 = TNF-TNFR1 (Homo sapiens, UniProt P01375); experiment: TNF-TNFR1 binding inhibition, FRET assay; conditions: for IC50: FRET (HTRF ratio), 0.25 nM TNF, 0.25 nM His-labeled TNFR1
TNF-TNFR1, sequence (P01375 77-233 limits assumed): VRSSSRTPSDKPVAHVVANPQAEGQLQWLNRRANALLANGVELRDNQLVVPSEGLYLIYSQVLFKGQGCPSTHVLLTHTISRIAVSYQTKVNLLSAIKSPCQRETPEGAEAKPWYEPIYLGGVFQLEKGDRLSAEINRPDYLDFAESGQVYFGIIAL
Method: (§1) In this experiment, the inhibitory activity of the compound of the present invention was evaluated using a fluorescence resonance energy transfer (FRET) assay to measure the binding of TNF-TNFR1 or TNF-TNFR2.
(§2) In particular, biotin-labeled 0.25 nM TNF, XL-665-labeled streptavidin, 0.25 nM His-labeled TNFR1, 1 nM His-labeled TNFR2, and Europium-Gold-labeled anti-his Ab were used. First, each 2 μL (10% DMSO) of the compounds of Examples 48 and 51 was added in 384 wells. After 4 μL of 0.25 nM TNF was added, 4 μL of each of 0.25 nM His-labeled TNFR1 or 1 nM His-labeled TNFR2 was added thereto and incubated at room temperature for 1 hour. After 1 hour incubation, 5 μL of XL-665-labeled streptavidin and 5 μL of Europium-Gold-labeled anti-his Ab were added and further incubated at room temperature. […] was measured at 622 nm and 665 nm. The reagent used at this time was prepared by dissolving in PPI-europium detection buffer.
(§3) First, binding inhibitory activity of the compounds of the present invention to TNF and TNFR1 or TNFR2 was evaluated at a single concentration ([…]) of the compounds.
(§4) Then, IC50 values were obtained with the various concentrations of the compounds of Examples 48 and 51. At this time, the value was confirmed through the HTRF ratio, and the HTRF ratio was calculated by the following formula.
(§5) IC50 values were statistically calculated using Prism 6 (GraphPad).

TNF-TNFR2 = TNF-TNFR2 (Homo sapiens, UniProt P01375); experiment: TNF-TNFR2 binding inhibition, FRET assay; conditions: for IC50: FRET (HTRF ratio), 0.25 nM TNF, 1 nM His-labeled TNFR2
TNF-TNFR2, sequence (P01375 77-233 limits assumed): as above
Method: as §1, §2, §3, §4, §5

HEK-Blue TNF cells = experiment: Inhibition of TNF response in HEK-Blue TNF cells (SEAP reporter gene assay); assay type: cell-based; conditions: Homo sapiens, TNF 0.2 ng/mL, absorbance 620 nm
Method: In this experiment, the TNF-inhibitory activity of the compound of the present invention was evaluated in HEK-Blue TNF cells. To this end, the transformed HEK-Blue TNF cells that respond specifically to the binding of TNF to TNFRs on the cell surface were treated with the compound of Example 48, followed by a reporter gene assay.
HEK-Blue TNF cells are human embryonic kidney cells that were transformed to express SEAP (secreted embryonic alkaline phosphatase) reporter gene having the binding site for activated NF-κB when TNF binds to TNFR on the cell surface and NF-κB is activated in the cell. […]
An experimental method was used in which SEAP, a reporter gene having the binding site for activated NF-κB in the intracellular signal transduction process, is expressed when human embryonic kidney cells, HEK-Blue TNF cells, are treated with recombinant TNF. In particular, SEAP is expressed when TNF (0.2 ng/mL) is added to HEK-Blue TNF cells, and the degree of color development is measured by treating the SEAP-specific QUANTI-Blue™ solution followed by reading absorbance at 620 nm to obtain IC50 value. The inhibition rate (%) of TNF was calculated by the following formula. […]
as §5

RIP1 = RIP1 ubiquitination, immunoprecipitation with TNFR1 in human peripheral blood T cells; assay type: cell-based; conditions: compound 0.1 μM 24 hours, then TNF 10 minutes, vs hTNF alone
Method: Two experiments were conducted to examine the TNF-cell signal transduction inhibitory activity by the compound of the present invention. First, immunoprecipitation was performed to evaluate the ubiquitination of an upstream protein of the TNF signaling pathway, that is, RIP1.
In particular, human peripheral blood T cells were treated with the compound of Example 48 (0, 0.1 μM) for 24 hours followed by with TNF for 10 minutes, and then immunoprecipitation was performed with TNFR1 protein.

[3] = test system: TNF-cell signal transduction pathway; experiment: TNF-cell signal transduction, Western blot in L929 cells; assay type: cell-based, mouse; conditions: hTNF 10 ng/ml + compound 0.01, 0.1, 1, 10 μM, vs hTNF alone
Method: Second, the inhibition of TNF signal transduction activity of Example 48 was confirmed. In order to examine the TNF-cell signal transduction inhibitory activity by the compound of the present invention, Western blot analysis was performed on proteins of the signal transduction pathway, namely phospho-p65, phospho-IKKα/β, phospho-SAPK/JNK, and phospho-AKT.
In particular, hTNF alone (10 ng/ml) or a mixture of hTNF and the compound of Example 48 (0.01, 0.1, 1, 10 μM) was incubated for 30 minutes, and then the incubated mixture was applied to mouse fibroblast L929 cells for 10 minutes. After the treatment, Western blot analysis was performed for phospho-p65, phospho-IKKα/β, phospho-SAPK/JNK, and phospho-AKT.

[4] = single concentration (10 PM), FIG. 4

**Q.** What does the source list for COc1c(-c2cc(F)ccc2F)oc2cc(Cl)ccc2c1=O [Example 40, 7-chloro-2-(2,5-difluorophenyl)-3-methoxy-4H-chromen-4-one]?
**A.** Survival (%) [1]: 50 * %; survival rate of mice compared to the control group [1]: increased

**Q.** For O=C(O)c1c(-c2cc(F)ccc2F)[nH]c2cc(Cl)ccc2c1=O [Example 2, 2-(2,5-difluorophenyl)-3-carboxy-7-chloro-4-(1H)-quinolone], which “Survival (%)” value [1] is on record?
**A.** 60%

**Q.** And the “survival rate of mice compared to the control group” value [1]?
**A.** increased

**Q.** Which IC50 [2] does the source give for O=C(NCCCCNC(=O)c1c(-c2cc(F)ccc2F)oc2cc(Cl)ccc2c1=O)c1c(-c2cc(F)ccc2F)oc2cc(Cl)ccc2c1=O [Example 54, N,N′-(butane-1,4-diyl)bis(7-chloro-2-(2,5-difluorophenyl)-4-oxo-4H-chromene-3-carboxamide)] here?
**A.** 7.19 µM

**Q.** Which IC50 (TNF-TNFR1) does the source give for O=C(O)c1c(-c2ccc(OCCOCCOc3ccc(-c4oc5cc(Cl)ccc5c(=O)c4C(=O)O)c(F)c3)cc2F)oc2cc(Cl)ccc2c1=O [Example 51, 2,2′-(((oxybis(ethane-2,1-diyl))bis(oxy))bis(2-fluoro-4,1-phenylene))bis(7-chloro-4-oxo-4H-chromene-3-carboxylic acid)] here?
**A.** 14.5 µM

**Q.** And the “binding inhibitory activity, TNF and TNFR1” value (TNF-TNFR1; [4])?
**A.** inhibit the binding

**Q.** And the IC50 (TNF-TNFR2)?
**A.** 22.3 µM

**Q.** What about the “binding inhibitory activity, TNF and TNFR2” value (TNF-TNFR2; [4]) of the same compound?
**A.** inhibit the binding

**Q.** How did the IC50 [2] turn out when O=C(c1c(-c2cc(F)ccc2F)oc2cc(Cl)ccc2c1=O)N1CCN(C(=O)c2c(-c3cc(F)ccc3F)oc3cc(Cl)ccc3c2=O)CC1 [Example 55, 3,3′-(piperazine-1,4-dicarbonyl)bis(7-chloro-2-(2,5-difluorophenyl)-4H-chromen-4-one)] was run?
**A.** 7.63 µM

**Q.** Which results are given for COc1c(-c2cc(F)cc(F)c2)oc2cc(F)ccc2c1=O [Example 44, 2-(3,5-difluorophenyl)-7-fluoro-3-methoxy-4H-chromen-4-one]?
**A.** Survival (%) [1]: 60 ** %; survival rate of mice compared to the control group [1]: increased

**Q.** Which IC50 (HEK-Blue TNF cells) does the source give for O=C(O)c1c(-c2ccc(OCCOc3ccc(-c4oc5cc(Cl)ccc5c(=O)c4C(=O)O)c(F)c3)cc2F)oc2cc(Cl)ccc2c1=O [Example 48, 2,2′-((ethane-1,2-diylbis(oxy))bis(2-fluoro-4,1-phenylene))bis(7-chloro-4-oxo-4H-chromene-3-carboxylic acid)] here?
**A.** 9.67 µM

**Q.** And the IC50 (TNF-TNFR1)?
**A.** 3.56 µM

**Q.** And the “binding inhibitory activity, TNF and TNFR1” value (TNF-TNFR1; [4])?
**A.** inhibit the binding

**Q.** And the “binding inhibitory effect compared with SPD304 and Quercetin, TNF-TNFR1” value (TNF-TNFR1; [4])?
**A.** higher binding inhibitory effect than SPD304

**Q.** What about the IC50 (TNF-TNFR2) of the same compound?
**A.** 3.92 µM

**Q.** And the “binding inhibitory activity, TNF and TNFR2” value (TNF-TNFR2; [4])?
**A.** inhibit the binding

**Q.** And the “binding inhibitory effect compared with SPD304 and Quercetin, TNF-TNFR2” value (TNF-TNFR2; [4])?
**A.** higher binding inhibitory effect than SPD304

**Q.** What about the “degree of RIP1 ubiquitination activated by TNF” value (RIP1) of the same compound?
**A.** reduced

**Q.** What about the “level of phospho-AKT” value [3] of the same compound?
**A.** reduced

**Q.** What about the “level of phospho-IKKα/β” value [3] of the same compound?
**A.** reduced

**Q.** What about the “level of phospho-SAPK/JNK” value [3] of the same compound?
**A.** reduced

**Q.** And the “level of phospho-p65” value [3]?
**A.** reduced

**Q.** And the “Survival (%)” value [1]?
**A.** 50 * %

**Q.** What about the “survival rate of mice compared to the control group” value [1] of the same compound?
**A.** increased

**Q.** For COc1ccc2c(=O)c(OC)c(-c3ccc(F)cc3F)oc2c1 [Example 47, 2-(2,4-difluorophenyl)-3,7-dimethoxy-4H-chromen-4-one], which “Survival (%)” value [1] is on record?
**A.** 40 * %

**Q.** And the “survival rate of mice compared to the control group” value [1]?
**A.** increased

**Q.** How did the IC50 [2] turn out when O=C(NCCNC(=O)c1c(-c2cc(F)ccc2F)oc2cc(Cl)ccc2c1=O)c1c(-c2cc(F)ccc2F)oc2cc(Cl)ccc2c1=O [Example 52, N,N′-(ethane-1,2-diyl)bis(7-chloro-2-(2,5-difluorophenyl)-4-oxo-4H-chromene-3-carboxamide)] was run?
**A.** 1.48 µM

**Q.** With O=c1c(O)c(-c2cc(F)ccc2F)oc2cc(Cl)ccc12 [Example 32, 7-chloro-2-(2,5-difluorophenyl)-3-hydroxy-4H-chromen-4-one] as the compound, how does the “Survival (%)” value [1] read?
**A.** 90 *** %

**Q.** And the “survival rate of mice compared to the control group” value [1]?
**A.** increased

**Q.** Which “Survival (%)” value [1] does the source give for COc1ccc2c(=O)c(O)c(-c3cc(F)cc(F)c3)oc2c1 [Example 39, 2-(3,5-difluorophenyl)-3-hydroxy-7-methoxy-4H-chromen-4-one] here?
**A.** 40%

**Q.** And the “survival rate of mice compared to the control group” value [1]?
**A.** increased
